Source: patent US7094786B2, “Method of treating nausea, vomiting, retching or any combination thereof” (Dynogen Pharmaceuticals, Inc., priority 2003, dated 2006)

Legend:
[1] = test system: α1, α2, β1, β2, 5-HT1, 5-HT1A, 5-HT1c, 5-HT2, 5-HT4, 5-HT6, 5-HT7, D1, D2, Muscarinic, M1, M2, M3, Nicotonic, H1, H2, GABA-A, GABA-B, BZP, Opiate, CRF and …; details: all receptors tested other than 5-HT3; read-out: IC50, radioligand binding to additional receptors; cited from earlier work
[2] = test system: muscarinic receptors; details: cited from earlier work
[3] = test system: Monoamine Oxidase-B (MAO-B); details: cited from earlier work
[4] = molecular target: T1, 5-HT3 receptor (Mus musculus, UniProt P23979); details: radioligand binding; read-out: Ki, affinity for the 5-HT3 receptor; cited from earlier work
T1 construct: host or cells: N1E-115 mouse neuroblastoma cells
T1 sequence (P23979 24-489): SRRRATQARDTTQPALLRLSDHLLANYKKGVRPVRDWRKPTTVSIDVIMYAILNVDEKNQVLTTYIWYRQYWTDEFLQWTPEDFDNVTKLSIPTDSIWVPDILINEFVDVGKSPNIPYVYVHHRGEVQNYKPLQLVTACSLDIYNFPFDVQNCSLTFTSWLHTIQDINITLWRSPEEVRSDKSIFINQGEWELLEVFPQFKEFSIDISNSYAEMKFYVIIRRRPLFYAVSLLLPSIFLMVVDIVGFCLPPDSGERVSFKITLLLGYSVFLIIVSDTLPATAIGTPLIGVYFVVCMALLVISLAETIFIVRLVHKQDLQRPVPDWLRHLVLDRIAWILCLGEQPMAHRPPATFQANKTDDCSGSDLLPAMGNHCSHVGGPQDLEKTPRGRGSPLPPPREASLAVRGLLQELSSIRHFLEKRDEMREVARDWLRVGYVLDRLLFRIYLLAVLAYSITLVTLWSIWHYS

[5] = test system: Monoamine Oxidase-A (MAO-A); details: cited from earlier work
[6] = test system: cisplatin-induced retching and vomiting; experiment: Cisplatin-induced emesis in the ferret; type: in vivo, ferret (Mustela putariofuro); details: for Latency: first emetic event; for Effect on latency of the first emetic response (in words): across doses tested i.p.; for Effect on number of cisplatin-induced emetic events (in words): across doses tested i.p. (ondansetron 5, 10 mg/kg; MCI-225 1, 10, 30 mg/kg); for Retches (360 min) / Vomits (360 min) / Total Events: male ferrets; for Total Events: 360 min
Protocol: The ability of MCI-225 to reduce retching and vomiting in an accepted model of cytotoxin-induced emesis in the ferret was assessed. Specifically, the experiments described herein investigated the effect of MCI-225 on retching and vomiting induced by cisplatin. Ondansetron was used as a positive control in the model, in view of its known antiemetic activity. Adult male ferrets (Mustela putariofuro) weighing 1200–1880 g were purchased from Triple F Farms (Sayre, Pa.) and housed in individual cages at standardized conditions (12:12 h light/dark cycle and 21–23° C.). Prior to the experiments, the ferrets were allowed a 7–10 day acclimatization period to the animal facility. The ferrets were fed a carnivore diet with free access to food and water throughout the course of the study. The use of the ferret model of emesis and the drug treatment were preapproved in accordance with facility standards. A cisplatin solution was prepared by adding preheated (70° C.) saline to cisplatin powder (Sigma-Aldrich Co.) and stirring or sonicating at 40° C. until dissolved. Following administration of the cisplatin and either MCI-225, ondansetron or vehicle alone, the occurrence of retching and vomiting was monitored for a period of 6 hours. Retching was defined as the number of forceful rhythmic contractions of the abdomen occurring with the animal in characteristic posture, but not resulting in the expulsion of upper gastrointestinal tract contents (Watson et al., British Journal of Pharmacology, 115(1): 84–94 (1994)). Vomiting was defined as the forceful oral expulsion of upper gastrointestinal contents. The latency of the retching or vomiting response and the number of episodes were recorded for each animal and summarized for each experimental group (Wright et al., Infect. Immun., 68(4): 2386–9 (2000)). Following one hour of acclimation to the observation cage, ferrets received an intraperitoneal (i.p.) injection of cisplatin (5 mg/kg in 5 mL) followed in about 2 minutes by i.p. injection of a single dose of MCI-225 or ondansetron (Rudd and Naylor, Eur. J. Pharmacol., 322: 79–82 (1997)). Dose-response effects of MCI-225 dosed at 1, 10 and 30 mg/kg i.p. in a 0.5 ml/kg solution or ondansetron dosed at 5 and 10 mg/kg i.p. in a 0.5 mL/kg solution were studied. Each animal received a single-dose drug treatment. In addition, three animals received an initial dose (30 mg/kg i.p.) and a second MCI-225 injection (30 mg/kg i.p.) 180 minutes following the initial dose. Control animals were treated with cisplatin followed by vehicle alone (propanediol dosed in a 0.5 mL/kg solution). All groups were randomized.

[7] = 10 mg/kg i.p. single dose after cisplatin 5 mg/kg i.p.
[8] = 5 mg/kg i.p. single dose after cisplatin 5 mg/kg i.p.

Structure (SMILES)	IC50 [1] [nM]	Anticholinergic activity [2]	Inhibition of MAO-B activity [3]	Ki [4] [nM]	Inhibition of MAO-A activity [5]	Latency ([6]; 1 mg/kg i.p. single dose after cisplatin 5 mg/kg i.p.) [min]	Latency [6, 7] [min]	Latency ([6]; 30 mg/kg b.i.d i.p. (two doses, 180-min interval) after cisplatin 5 mg/kg i.p.) [min]	Latency ([6]; 30 mg/kg i.p. single dose after cisplatin 5 mg/kg i.p.) [min]	Effect on latency of the first emetic response (in words) [6]	Effect on number of cisplatin-induced emetic events (in words) [6]	Overall antiemetic efficacy (conclusion) ([6]; similar dose range as ondansetron)	Emetic response (in words) ([6]; two doses of 30 mg/kg, b.i.d at a 180-min interval)	Latency [6, 8] [min]	Retches (360 min) [6, 8]	Vomits (360 min) [6, 8]	Total Events [6, 8]	Retches (360 min) [6, 7]	Vomits (360 min) [6, 7]	Total Events [6, 7]
Cc1cc2c(-c3ccccc3F)nc(N3CCNCC3)nc2s1 [MCI-225, 4-(2-fluorophenyl)-6-methyl-2-(1-piperazinyl)thieno[2,3-d]pyrimidine]	> 1000	substantially no anticholinergic activity	did not inhibit	< 100	did not inhibit	186 ± 35	192 ± 57	360 ± 0	287 ± 38	increase in the latency of the response	dose-dependent reduction in the retches and vomits	effective at reducing retching and vomiting	eliminated							
Cc1nccn1CC1CCc2c(c3ccccc3n2C)C1=O (centres unmarked) [Ondansetron, ondansetron]							313 ± 32			increase in the latency of the first emetic response	dose-dependently reduced the number of emetic events			288 ± 4	11.2 ± 7.0	0.3 ± 0.2	11.5 ± 7.2	2.4 ± 1.6	0.0 ± 0.0	2.4 ± 1.6
